In patent US12319664B2, “Herbicidally active 3-phenylisoxazoline-5-carboxamides of cyclopentenylcarboxylic acid derivatives” (Bayer Aktiengesellschaft, priority 2018, dated 2025):

Tests used:
MATIN = test: Post-emergence herbicidal action against MATIN; assay type: in vivo, Matricaria inodora; conditions: application rate 80 g/ha, rated visually about 3 weeks after treatment
How it was run: (§1)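 Activity was scored by eye roughly 3 weeks post-treatment relative to untreated plants, on a scale where 0% equals control and 100% equals dead plants. Treatment: spray onto green parts at one-leaf stage (2–3 weeks from sowing, sandy loam, greenhouse), WP/EC formulations with 0.5% additive, 600 l/ha water.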

ECHCG = test: Post-emergence herbicidal action against ECHCG; assay type: in vivo, Echinochloa crus-galli; conditions: application rate 80 g/ha, rated visually after about 3 weeks
How it was run: as §1

ABUTH = test: Post-emergence herbicidal action against ABUTH; assay type: in vivo, Abutilon theophrasti; conditions: application rate 80 g/ha, rated visually about 3 weeks after treatment
How it was run: as §1

AMARE = test: Post-emergence herbicidal action against AMARE; assay type: in vivo, Amaranthus retroflexus; conditions: application rate 80 g/ha, rated visually about 3 weeks after treatment
How it was run: as §1

AVEFA = test: Post-emergence herbicidal action against AVEFA; assay type: in vivo, Avena fatua; conditions: application rate 80 g/ha, rated visually after about 3 weeks
How it was run: as §1

LOLRI = test: Post-emergence herbicidal action against LOLRI; assay type: in vivo, Lolium rigidum; conditions: application rate 80 g/ha, rated visually after about 3 weeks
How it was run: as §1

VIOTR = test: Post-emergence herbicidal action against VIOTR; assay type: in vivo, Viola tricolor; conditions: application rate 80 g/ha, rated visually about 3 weeks after treatment
How it was run: as §1

STEME = test: Post-emergence herbicidal action against STEME; assay type: in vivo, Stellaria media; conditions: application rate 80 g/ha, rated visually about 3 weeks after treatment
How it was run: as §1

VERPE = test: Post-emergence herbicidal action against VERPE; assay type: in vivo, Veronica persica; conditions: application rate 80 g/ha
How it was run: as §1

ALOMY = test: Post-emergence herbicidal action against ALOMY; assay type: in vivo, Alopecurus myosuroides; conditions: application rate 80 g/ha, rated visually after about 3 weeks
How it was run: as §1

POLCO = test: Post-emergence herbicidal action against POLCO; assay type: in vivo, Polygonum convolvulus; conditions: application rate 80 g/ha, rated visually about 3 weeks after treatment
How it was run: as §1

SETVI = test: Post-emergence herbicidal action against SETVI; assay type: in vivo, Setaria viridis; conditions: application rate 80 g/ha, rated visually after about 3 weeks
How it was run: as §1

HORMU = test: Post-emergence herbicidal action against HORMU; assay type: in vivo, Hordeum murinum; conditions: application rate 80 g/ha
How it was run: as §1

PHBPU = test: Post-emergence herbicidal action against PHBPU; assay type: in vivo, Pharbitis purpurea; conditions: application rate 80 g/ha, rated visually about 3 weeks after treatment
How it was run: as §1

| Structure (SMILES) | Herbicidal action against [%] MATIN (MATIN) | Herbicidal action against [%] ECHCG (ECHCG) | Herbicidal action against [%] ABUTH (ABUTH) | Herbicidal action against [%] AMARE (AMARE) | Herbicidal action against [%] AVEFA (AVEFA) | Herbicidal action against [%] LOLRI (LOLRI) | Herbicidal action against [%] VIOTR (VIOTR) | Herbicidal action against [%] STEME (STEME) | Herbicidal action against [%] VERPE (VERPE) | Herbicidal action against [%] ALOMY (ALOMY) | Herbicidal action against [%] POLCO (POLCO) | Herbicidal action against [%] SETVI (SETVI) | Herbicidal action against [%] HORMU (HORMU) | Herbicidal action against [%] PHBPU (PHBPU) |
| --- | --- | --- | --- | --- | --- | --- | --- | --- | --- | --- | --- | --- | --- | --- |
| Cc1cc(Cl)cc(C2=NOC(C(=O)N[C@H]3C=C[C@@H](C(=O)OCCCl)C3)(C(F)(F)F)C2)c1 (stereo partly shown) [Example I-028] | 80% | 80% | 80% | 90% | 100% | 90% | 80% | 80% | 80% | 90% | 100% | 90% | 80% |  |
| CCOC(=O)[C@@H]1C=C[C@H](NC(=O)C2(OC)CC(c3cc(F)cc(F)c3)=NO2)C1 (stereo partly shown) [Example I-020] | 90% | 80% | 80% | 100% | 100% | 90% | 100% | 80% | 90% | 90% |  | 90% | 80% | 80% |
| C[C@]1(C(=O)N[C@@H]2C=C(C(=O)O)CC2)CC(c2cc(F)cc(F)c2)=NO1 [Example V-01] | 80% | 90% | 80% | 80% |  | 100% | 90% | 90% | 80% | 100% | 90% | 80% | 90% | 90% |
| COC(=O)[C@@H]1C=C[C@H](NC(=O)C2(OC)CC(c3cc(F)cc(F)c3)=NO2)C1 (stereo partly shown) [Example I-019] | 90% | 80% | 80% | 90% | 100% | 90% | 80% | 90% | 90% | 90% | 100% | 90% | 90% |  |
| CCOC(=O)C1C=CC(NC(=O)C2(C(F)(F)F)CC(c3cc(F)cc(C#N)c3)=NO2)C1 (mixture of isomers) [Example I-071] | 80% | 90% | 80% | 80% | 100% | 90% | 80% | 90% | 80% | 90% | 90% | 90% | 90% |  |
| CCOC(=O)[C@@H]1C=C[C@H](NC(=O)C2(C(F)(F)F)CC(c3cc(C)cc(Cl)c3)=NO2)C1 (stereo partly shown) [Example I-023] | 90% | 80% | 80% | 90% | 90% | 90% | 80% |  | 90% | 90% | 100% | 90% | 80% | 80% |
| COC(=O)C1C=CC(NC(=O)C2(C(F)(F)F)CC(c3cc(C)cc(C)c3)=NO2)C1 (mixture of isomers) [Example I-055] | 80% | 90% | 80% | 80% | 80% | 90% | 90% | 90% | 80% | 90% | 90% | 90% | 90% |  |
| CCOCCOC(=O)[C@@H]1C=C[C@H](NC(=O)[C@@]2(C(F)(F)F)CC(c3cc(F)cc(F)c3)=NO2)C1 [Example I-077] | 80% | 80% |  | 80% | 100% | 90% | 80% | 80% | 90% | 90% | 80% | 80% | 90% | 80% |
| C=CC1(C(=O)N[C@H]2C=C[C@@H](C(=O)OCCC(F)(F)F)C2)CC(c2cc(F)cc(F)c2)=NO1 (stereo partly shown) [Example I-017] | 80% | 100% | 100% | 90% | 100% | 100% | 80% | 100% | 90% | 100% | 90% | 90% | 100% |  |
| C=CC1(C(=O)N[C@H]2C=C[C@@H](C(=O)OCC(F)(F)F)C2)CC(c2cc(F)cc(F)c2)=NO1 (stereo partly shown) [Example I-015] | 80% | 100% | 90% | 100% | 100% | 100% | 90% | 100% | 90% | 100% | 100% | 90% | 100% |  |
